Measurements from patent US7494996B2 (priority 2000, dated 2009).

Experiments:
Sphaerotheca fuliginea = test: Cucumber Powdery Mildew (CPM) protectant test in the greenhouse; format: in vivo; conditions: 100 is total disease control, 0 is no disease control; for Cucumber Powdery Mildew (CPM) protectant fungicide data, percent control: 300 g/ha; for pest or weed control at 300 g/ha: Podosphaera fuliginea, topical, 168 h, read-out: Cucumber Powdery Mildew (CPM) protectant fungicide data, percent control
Description: Plants used in the fungicide testing program were grown in 2-¼-inch (5.7-cm). square pots containing RediEarth propagation substrate. The plants were raised under greenhouse conditions. The rice plants were 12-days-old and cucumbers were 13-days-old at the time of spraying with chemical treatments.
The sample of the experimental chemical was weighed and dissolved in an acetone-methanol-water solution (A/M/W at 1:1:2 ratio by volume).
After sprayer calibration, the test solutions were poured into the fungicide sprayer. The fungicide sprayer contains three spray nozzles, located approximately 10 cm above and to the sides of the plants. The spray produced by the nozzles results in uniform coverage of both the upper and lower parts of the plant leaves. After spraying, the treated plants were placed in a drying chamber for 4 hours, prior to sorting.
Cucumber Powdery Mildew (CPM), caused by the fungus Sphaerotheca fuliginea, was maintained on large cucumber plants. For inoculum preparation, five to eight leaves depending on size, completely covered with powdery mildew spores, were collected. The leaves were placed in a glass jar and covered with 500 ml of water, containing 5 drops of Tween-80. The material was filtered through two layers of cheesecloth to remove leaf fragments. The spore count was adjusted to 2×10^5 spores per ml.
Cucumber plants, cv. “Bush Champion,” were used for this test. The plants were thinned to one per pot after the cotyledons were fully developed. Two days before the test, the small leaves and meristem region were removed, leaving only the cotyledons and one large true leaf.
The protectant tests required that the cucumber plants be inoculated 1 day after spraying with the chemical treatment. The plants were inoculated with a hand-held spray bottle with the suspension of fungal spores. The leaves were lightly misted on the upper surface from two different spray directions. Disease development occurred in the greenhouse.
After seven days, the plants were evaluated for percent of disease control. The results are reported as percent control; 100 is total disease control, 0 is no disease control.

Pyricularia oryzae = test: whole plant or invertebrate; format: in vivo; conditions: 100 is total disease control, 0 is no disease control; for Rice Blast (RB) protectant fungicide data, percent control: 300 g/ha, greenhouse; for pest or weed control at 300 g/ha: Pyricularia oryzae, topical, 144 h, read-out: Rice Blast (RB) protectant fungicide data, percent control, protectant, 300 g/ha, greenhouse

**Q.** O=C1CNC(c2cccc(C(F)(F)F)c2)=NN1CC(F)(F)F [Compound 153] was tested. Which “Cucumber Powdery Mildew (CPM) protectant fungicide data, percent control” value (from here on “Cucumber Powdery Mildew … percent control”) (Sphaerotheca fuliginea) did it give?
**A.** Its value is 0 percent control.

**Q.** And the “Rice Blast (RB) protectant fungicide data, percent control” value (“Rice Blast … percent control” below) (Pyricularia oryzae)?
**A.** Its value is 100 percent control.

**Q.** N#Cc1cccc(C2=NN(CC(F)(F)F)C(=O)CN2)c1 [Compound 176] was tested. Which “Cucumber Powdery Mildew … percent control” value (Sphaerotheca fuliginea) did it give?
**A.** Its value is 50 percent control.

**Q.** And the “Rice Blast … percent control” value (Pyricularia oryzae)?
**A.** The value was 50 percent control.

**Q.** With CCCCN1N=C(c2ccccc2O)NCC1=O [Compound 83, 1-n-Butyl-3-(2-hydroxyphenyl)-4,5-dihydro-1,2,4-triazin-6-one] as the compound, how does the pest or weed control at 300 g/ha (Sphaerotheca fuliginea) read?
**A.** Its pest or weed control at 300 g/ha is 0%.

**Q.** And the pest or weed control at 300 g/ha (Pyricularia oryzae)?
**A.** The pest or weed control at 300 g/ha was 80%.

**Q.** How did the “Cucumber Powdery Mildew … percent control” value (Sphaerotheca fuliginea) turn out when O=C1CNC(c2ccc(-c3ccc([N+](=O)[O-])cc3)cc2)=NN1CC(F)(F)F [Compound 142] was run?
**A.** Its value is 0 percent control.

**Q.** What about the “Rice Blast … percent control” value (Pyricularia oryzae) of the same compound?
**A.** The value was 80 percent control.

**Q.** What does the source list for CCCCN1N=C(c2ccc(Cl)c(Cl)c2)N(C=CS(=O)(=O)c2ccccc2)CC1=O [Compound 13, 1-n-butyl-3-(3.4-dichlorophenyl)-4-(2-phenylsulfonylethene)-4,5-dihydro-1,2,4-triazin-6-one]?
**A.** Cucumber Powdery Mildew (CPM) protectant fungicide data, percent control (Sphaerotheca fuliginea): 0 percent control; Rice Blast (RB) protectant fungicide data, percent control (Pyricularia oryzae): 95 percent control

**Q.** Which “Cucumber Powdery Mildew … percent control” value (Sphaerotheca fuliginea) does the source give for CCCCN1N=C(c2ccc(Cl)c(Cl)c2)N(C(=O)OCCCl)CC1=O [Compound 179] here?
**A.** Its value is 0 percent control.

**Q.** And the “Rice Blast … percent control” value (Pyricularia oryzae)?
**A.** The value was 75 percent control.

**Q.** Which results are given for CCCCN1N=C(c2cc3ccccc3s2)NCC1=O [Compound 162]?
**A.** Cucumber Powdery Mildew (CPM) protectant fungicide data, percent control (Sphaerotheca fuliginea): 50 percent control; Rice Blast (RB) protectant fungicide data, percent control (Pyricularia oryzae): 95 percent control

**Q.** C#CCN1N=C(c2ccc(F)c(Br)c2)NCC1=O [Compound 218] was tested. Which “Cucumber Powdery Mildew … percent control” value (Sphaerotheca fuliginea) did it give?
**A.** The value was 80 percent control.

**Q.** What about the “Rice Blast … percent control” value (Pyricularia oryzae) of the same compound?
**A.** The value was 98 percent control.

**Q.** How did the “Cucumber Powdery Mildew … percent control” value (Sphaerotheca fuliginea) turn out when CCCCN1N=C(C)NC(c2ccc(OC)cc2)C1=O (stereo not drawn) [Compound 79] was run?
**A.** The value was 50 percent control.

**Q.** And the “Rice Blast … percent control” value (Pyricularia oryzae)?
**A.** Its value is 75 percent control.

**Q.** How did the “Cucumber Powdery Mildew … percent control” value (Sphaerotheca fuliginea) turn out when CCC#CCN1CC(=O)N(CC#CCC)N=C1c1ccc(Cl)c(Cl)c1 [Compound 209] was run?
**A.** Its value is 0 percent control.

**Q.** What about the “Rice Blast … percent control” value (Pyricularia oryzae) of the same compound?
**A.** The value was 75 percent control.

**Q.** What does the source list for O=C1CNC(c2c(Cl)cncc2Cl)=NN1CC(F)(F)F [Compound 159]?
**A.** Cucumber Powdery Mildew (CPM) protectant fungicide data, percent control (Sphaerotheca fuliginea): 0 percent control; Rice Blast (RB) protectant fungicide data, percent control (Pyricularia oryzae): 85 percent control

**Q.** How did the “Cucumber Powdery Mildew … percent control” value (Sphaerotheca fuliginea) turn out when Cn1nc(-c2ccc(Oc3ccccc3)cc2)ncc1=O [Compound 282] was run?
**A.** Its value is 75 percent control.

**Q.** And the “Rice Blast … percent control” value (Pyricularia oryzae)?
**A.** Its value is 75 percent control.

**Q.** O=c1cnc(-c2ccccc2)n[nH]1 [Compound 243] was tested. Which “Cucumber Powdery Mildew … percent control” value (Sphaerotheca fuliginea) did it give?
**A.** The value was 0 percent control.

**Q.** And the “Rice Blast … percent control” value (Pyricularia oryzae)?
**A.** The value was 75 percent control.

**Q.** How did the “Cucumber Powdery Mildew … percent control” value (Sphaerotheca fuliginea) turn out when C#CCN1N=C(c2cccc(F)c2)NCC1=O [Compound 225] was run?
**A.** The value was 0 percent control.

**Q.** What about the “Rice Blast … percent control” value (Pyricularia oryzae) of the same compound?
**A.** Its value is 80 percent control.

**Q.** Which results are given for O=C1CNC(c2cccc(Cl)c2)=NN1c1ccccc1 [Compound 111]?
**A.** Cucumber Powdery Mildew (CPM) protectant fungicide data, percent control (Sphaerotheca fuliginea): 90 percent control; Rice Blast (RB) protectant fungicide data, percent control (Pyricularia oryzae): 85 percent control

**Q.** For CCCCN1N=C(c2ccc(Cl)c(Cl)c2)N(C(=O)C2CC2)CC1=O [Compound 181], which “Cucumber Powdery Mildew … percent control” value (Sphaerotheca fuliginea) is on record?
**A.** Its value is 0 percent control.

**Q.** And the “Rice Blast … percent control” value (Pyricularia oryzae)?
**A.** Its value is 50 percent control.

**Q.** CCCCN1N=C(c2ccc(F)c(Cl)c2)NCC1=O [Compound 106] was tested. Which “Cucumber Powdery Mildew … percent control” value (Sphaerotheca fuliginea) did it give?
**A.** The value was 95 percent control.

**Q.** And the “Rice Blast … percent control” value (Pyricularia oryzae)?
**A.** The value was 100 percent control.

**Q.** Cc1cccc(C2=NN(CC(F)(F)F)C(=O)CN2)c1 [Compound 154] was tested. Which “Cucumber Powdery Mildew … percent control” value (Sphaerotheca fuliginea) did it give?
**A.** The value was 75 percent control.

**Q.** What about the “Rice Blast … percent control” value (Pyricularia oryzae) of the same compound?
**A.** Its value is 0 percent control.

**Q.** CCCCN1N=C(c2ccc(Oc3ccccc3)cc2)NCC1=O [Compound 3, 1-Butyl-3-(4-phenoxyphenyl)-4,5-dihydro-1,2,4-triazin-6-one] was tested. Which pest or weed control at 300 g/ha (Sphaerotheca fuliginea) did it give?
**A.** Its pest or weed control at 300 g/ha is 0%.

**Q.** What about the pest or weed control at 300 g/ha (Pyricularia oryzae) of the same compound?
**A.** Its pest or weed control at 300 g/ha is 80%.

**Q.** What does the source list for CCCCN1N=C(c2ccccc2OCc2ccccc2)NCC1=O [Compound 213]?
**A.** Cucumber Powdery Mildew (CPM) protectant fungicide data, percent control (Sphaerotheca fuliginea): 50 percent control; Rice Blast (RB) protectant fungicide data, percent control (Pyricularia oryzae): 85 percent control

**Q.** For C=CC(=O)N1CC(=O)N(CCCC)N=C1c1cc(Cl)cc(Cl)c1 [Compound 138], which “Cucumber Powdery Mildew … percent control” value (Sphaerotheca fuliginea) is on record?
**A.** Its value is 0 percent control.

**Q.** What about the “Rice Blast … percent control” value (Pyricularia oryzae) of the same compound?
**A.** Its value is 99 percent control.

**Q.** Which results are given for CCCCN1N=C(c2c(Cl)cncc2Cl)NCC1=O [Compound 121]?
**A.** Cucumber Powdery Mildew (CPM) protectant fungicide data, percent control (Sphaerotheca fuliginea): 0 percent control; Rice Blast (RB) protectant fungicide data, percent control (Pyricularia oryzae): 80 percent control

**Q.** With CCOc1ccc(C2=NN(c3ccc(Cl)cc3)C(=O)CN2)cc1 [Compound 161] as the compound, how does the “Cucumber Powdery Mildew … percent control” value (Sphaerotheca fuliginea) read?
**A.** Its value is 0 percent control.

**Q.** And the “Rice Blast … percent control” value (Pyricularia oryzae)?
**A.** The value was 80 percent control.

**Q.** What does the source list for CCC#CCn1nc(-c2ccc(Cl)cc2)nc(C)c1=O [Compound 237]?
**A.** Cucumber Powdery Mildew (CPM) protectant fungicide data, percent control (Sphaerotheca fuliginea): 95 percent control; Rice Blast (RB) protectant fungicide data, percent control (Pyricularia oryzae): 0 percent control

**Q.** What does the source list for O=c1cnc(-c2ccccc2F)nn1CC(F)(F)F [Compound 263]?
**A.** Cucumber Powdery Mildew (CPM) protectant fungicide data, percent control (Sphaerotheca fuliginea): 85 percent control; Rice Blast (RB) protectant fungicide data, percent control (Pyricularia oryzae): 80 percent control

**Q.** For CCc1ccc(C2=NN(CCc3ccccc3)C(=O)CN2)cc1 [Compound 189], which “Cucumber Powdery Mildew … percent control” value (Sphaerotheca fuliginea) is on record?
**A.** The value was 75 percent control.

**Q.** What about the “Rice Blast … percent control” value (Pyricularia oryzae) of the same compound?
**A.** Its value is 80 percent control.

**Q.** What does the source list for CCCCN1N=C(c2ccc3ccccc3c2)NCC1=O [Compound 119]?
**A.** Cucumber Powdery Mildew (CPM) protectant fungicide data, percent control (Sphaerotheca fuliginea): 0 percent control; Rice Blast (RB) protectant fungicide data, percent control (Pyricularia oryzae): 99 percent control

**Q.** How did the “Cucumber Powdery Mildew … percent control” value (Sphaerotheca fuliginea) turn out when CCCCN1N=C(c2cccc(C3=NN(CCCC)C(=O)CN3)c2)NCC1=O [Compound 232] was run?
**A.** The value was 99 percent control.

**Q.** And the “Rice Blast … percent control” value (Pyricularia oryzae)?
**A.** The value was 100 percent control.

**Q.** Which “Cucumber Powdery Mildew … percent control” value (Sphaerotheca fuliginea) does the source give for CN1N=C(c2ccccc2)NCC1=O [Compound 31] here?
**A.** The value was 0 percent control.

**Q.** And the “Rice Blast … percent control” value (Pyricularia oryzae)?
**A.** Its value is 50 percent control.

**Q.** Which results are given for CCCCCN1N=C2C=CC(c3ccc(Cl)cc3)=NN2CC1=O [Compound 24, 2-Pentyl-7-(4-chlorophenyl)-pyridazino[6,1-c][1,2,4]triazin-3(4H)one]?
**A.** pest or weed control at 300 g/ha (Sphaerotheca fuliginea): 50%; pest or weed control at 300 g/ha (Pyricularia oryzae): 0%

**Q.** Which results are given for Cc1c(Cl)cc(C2=NN(CC(F)(F)F)C(=O)CN2)cc1Cl [Compound 47]?
**A.** Cucumber Powdery Mildew (CPM) protectant fungicide data, percent control (Sphaerotheca fuliginea): 80 percent control; Rice Blast (RB) protectant fungicide data, percent control (Pyricularia oryzae): 100 percent control

**Q.** Which results are given for O=C1CNC(c2ccc3ccccc3c2)=NN1 [Compound 124]?
**A.** Cucumber Powdery Mildew (CPM) protectant fungicide data, percent control (Sphaerotheca fuliginea): 0 percent control; Rice Blast (RB) protectant fungicide data, percent control (Pyricularia oryzae): 75 percent control

**Q.** How did the “Cucumber Powdery Mildew … percent control” value (Sphaerotheca fuliginea) turn out when CCCN1N=C(c2ccc(F)cc2)NCC1=O [Compound 148] was run?
**A.** Its value is 80 percent control.

**Q.** And the “Rice Blast … percent control” value (Pyricularia oryzae)?
**A.** The value was 80 percent control.

**Q.** Which results are given for CCCCN1N=C(C)NC(c2ccc(C)cc2)C1=O (stereo not drawn) [Compound 75]?
**A.** Cucumber Powdery Mildew (CPM) protectant fungicide data, percent control (Sphaerotheca fuliginea): 85 percent control; Rice Blast (RB) protectant fungicide data, percent control (Pyricularia oryzae): 0 percent control

**Q.** What does the source list for CC=CC(=O)N1CC(=O)N(CCCC)N=C1c1ccc(Cl)c(Cl)c1 [Compound 177]?
**A.** Cucumber Powdery Mildew (CPM) protectant fungicide data, percent control (Sphaerotheca fuliginea): 50 percent control; Rice Blast (RB) protectant fungicide data, percent control (Pyricularia oryzae): 95 percent control

**Q.** Which “Cucumber Powdery Mildew … percent control” value (Sphaerotheca fuliginea) does the source give for CCCCN1N=C(c2sc(C)nc2C(F)(F)F)NCC1=O [Compound 68] here?
**A.** The value was 50 percent control.

**Q.** And the “Rice Blast … percent control” value (Pyricularia oryzae)?
**A.** The value was 0 percent control.
